The target of this test is BTK enzyme (recombinant full-length BTK, hBTK) (Homo sapiens (Human), UniProt Q06187). The experiment in a line: Btk enzyme activity assay, LANCE TR-FRET. The format is biochemical. To be noted: 50 pM hBTK, 2 μM biotin-A5-peptide, 25 μM ATP, 60 minute compound & enzyme incubation, compound range 1 μM to 0.017 nM, read-out: BTK binding IC50. As to the method: Btk Enzyme Activity Assay Methods
BTK enzymatic activity was determined with the LANCE (Lanthanide Chelate Excite) TR-FRET (Time-resolved fluorescence resonance energy transfer) assay. In this assay, the potency (IC50) of each compound was determined from an eleven point (1:3 serial dilution; final compound concentration range in assay from 1 μM to 0.017 nM) titration curve using the following outlined procedure. To each well of a black non-binding surface Corning 384-well microplate (Corning Catalog #3820), 5 nL of compound (2000 fold dilution in final assay volume of 10 μL) was dispensed, followed by the addition of 7.5 μL of 1× kinase buffer (50 mM Hepes 7.5, 10 mM MgCl2, 0.01% Brij-35, 1 mM EGTA, 0.05% BSA & 1 mM DTT) containing 5.09 pg/μL (66.67 pM) of BTK enzyme (recombinant protein from baculovirus-transfected Sf9 cells: full-length BTK, 6HIS-tag cleaved). Following a 60 minute compound & enzyme incubation, each reaction was initiated by the addition of 2.5 μL 1× kinase buffer containing 8 μM biotinylated “A5” peptide (Biotin-EQEDEPEGDYFEWLE-NH2) (SEQ.ID.NO.: 1), and 100 μM ATP. The final reaction in each well of 10 μL consists of 50 pM hBTK, 2 μM biotin-A5-peptide, and 25 μM ATP. Phosphorylation reactions were allowed to proceed for 120 minutes. Reactions were immediately quenched by the addition of 20 uL of 1× quench buffer (15 mM EDTA, 25 mM Hepes 7.3, and 0.1% Triton X-100) containing detection reagents (0.626 nM of LANCE-Eu-W1024-anti-phosphoTyrosine antibody, PerkinElmer and 86.8 nM of Streptavidin-conjugated Dylight 650, Dyomics/ThermoFisher Scientific). After 60 minutes incubation with detection reagents, reaction plates were read on a PerkinElmer EnVision plate reader using standard TR-FRET protocol. Briefly, excitation of donor molecules (Eu-chelate:anti-phospho-antibody) with a laser light source at 337 nm produces energy that can be transferred to Dylight-650 acceptor molecules if this donor:acceptor pair is within close proximity. Fluorescence intensity at both 665 nm (acceptor) and 615 nm (donor) are measured and a TR-FRET ratio calculated for each well (acceptor intensity/donor intensity). IC50 values were determined by 4 parameter robust fit of TR-FRET ratio values vs. (Log10) compound concentrations.

The structures appear in SMILES notation.

Chain of BTK enzyme (recombinant full-length BTK, hBTK) (Q06187 whole entry): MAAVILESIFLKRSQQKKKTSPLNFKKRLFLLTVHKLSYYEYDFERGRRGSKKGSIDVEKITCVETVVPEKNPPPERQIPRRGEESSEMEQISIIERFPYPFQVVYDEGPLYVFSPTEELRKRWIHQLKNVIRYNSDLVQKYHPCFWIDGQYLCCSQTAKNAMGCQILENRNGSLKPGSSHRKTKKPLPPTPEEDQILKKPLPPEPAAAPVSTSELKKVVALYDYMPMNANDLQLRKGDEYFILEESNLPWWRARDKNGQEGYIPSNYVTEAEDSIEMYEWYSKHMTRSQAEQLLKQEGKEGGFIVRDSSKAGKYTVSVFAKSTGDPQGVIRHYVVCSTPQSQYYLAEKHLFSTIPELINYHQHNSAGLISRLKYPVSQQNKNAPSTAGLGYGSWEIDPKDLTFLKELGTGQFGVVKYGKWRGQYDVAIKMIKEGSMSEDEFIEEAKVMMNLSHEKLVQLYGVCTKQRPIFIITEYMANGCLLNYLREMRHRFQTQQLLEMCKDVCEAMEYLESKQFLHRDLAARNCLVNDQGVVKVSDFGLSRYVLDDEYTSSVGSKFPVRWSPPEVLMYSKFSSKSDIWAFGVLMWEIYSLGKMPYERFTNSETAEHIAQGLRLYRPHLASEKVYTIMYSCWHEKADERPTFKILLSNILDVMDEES

As for `CC(C)[C@]1(C(=O)O)CC[C@H](c2nc(-c3ccc([C@@](C)(O)c4cccc(C(F)(F)F)c4)cc3)c3c(N)nccn23)C1` [Example 5, (1S,3S)-3-[8-amino-1-(4-{(1R)-1-hydroxy-1-[3-(trifluoromethyl)phenyl]ethyl}phenyl)imidazo[1,5-a]pyrazin-3-yl]-1-(1-methylethyl)cyclopentanecarboxylic acid], the IC50 was determined as 19 nM.

In the case of `CC1(C)[C@H](c2nc(-c3ccc([C@@](C)(O)c4cccc(C(F)F)c4)cc3)c3c(N)ncc(F)n23)CC[C@]1(C)C(=O)O` [Example 34, (1S,3R)-3-[8-amino-1-(4-{(1R)-1-[3-(difluoromethyl)phenyl]-1-hydroxyethyl}phenyl)-5-fluoroimidazo[1,5-a]pyrazin-3-yl]-1,2,2-trimethylcyclopentanecarboxylic acid], the IC50 was 2.4 nM.

On to `CC(C)[C@@]1(C(=O)O)CC[C@@H](c2nc(-c3ccc([C@@](C)(O)c4cccc(C(F)F)c4)cc3)c3c(N)ncc(Cl)n23)C1` [Example 32, (1R,3R)-3-[8-amino-5-chloro-1-(4-{(1R)-1-[3-(difluoromethyl)phenyl]-1-hydroxyethyl}phenyl)imidazo[1,5-a]pyrazin-3-yl]-1-(1-methylethyl)cyclopentanecarboxylic acid], for which the IC50 came out at 41.8 nM.

Turning to `C[C@](O)(c1ccc(-c2nc(C34CCC(C(=O)O)(CC3)CC4)n3ccnc(N)c23)cc1)c1cccc(C(F)(F)F)c1` [Example 2, 4-[8-amino-1-(4-{(1S)-1-hydroxy-1-[3-(trifluoromethyl)phenyl]ethyl}phenyl)imidazo[1,5-a]pyrazin-3-yl]bicyclo[2.2.2]octane-1-carboxylic acid], the IC50 came out at 5.8 nM.

Regarding `CC1(C(=O)O)CCC(C)(c2nc(-c3ccc([C@@](C)(O)c4cccc(C(F)F)c4)cc3)c3c(N)nccn23)CC1` (stereo partly drawn) [Example 33, 4-[8-amino-1-(4-{(1R)-1-[3-(difluoromethyl)phenyl]-1-hydroxyethyl}phenyl)imidazo[1,5-a]pyrazin-3-yl]-1,4-dimethylcyclohexanecarboxylic acid], the IC50 was found to be 11.4 nM.

For the compound `CC(C)[C@@]1(C(=O)O)CCC[C@H](c2nc(-c3ccc([C@](C)(O)c4cccc(C(F)(F)F)c4)cc3)c3c(N)nccn23)C1` [Example 15, (1R,3S)-3-[8-amino-1-(4-{(1S)-1-hydroxy-1-[3-(trifluoromethyl)phenyl]ethyl}phenyl)imidazo[1,5-a]pyrazin-3-yl]-1-(1-methylethyl)cyclohexanecarboxylic acid], the IC50 came out at 104 nM.

`CC(C)[C@@]1(C(=O)O)CC[C@H](c2nc(-c3ccc([C@@](C)(O)c4cccc(C(F)F)c4)cc3)c3c(N)ncc(Cl)n23)C1` [Example 30, (1R,3S)-3-[8-amino-5-chloro-1-(4-{(1R)-1-[3-(difluoromethyl)phenyl]-1-hydroxyethyl}phenyl)imidazo[1,5-a]pyrazin-3-yl]-1-(1-methylethyl)cyclopentanecarboxylic acid]: the IC50 is 32.3 nM.

Take `C[C@@](O)(c1ccc(-c2nc(C3(C(=O)O)CC3)n3ccnc(N)c23)cc1)c1cccc(C(F)(F)F)c1` [Example 7, 1-[8-amino-1-(4-{(1R)-1-hydroxy-1-[3-(trifluoromethyl)phenyl]ethyl}phenyl)imidazo[1,5-a]pyrazin-3-yl]cyclopropanecarboxylic acid]: the IC50 is 614 nM.

In the case of `C[C@@](O)(c1ccc(-c2nc([C@@H]3C[C@H]4CC[C@@H](C3)[C@H]4C(=O)O)n3ccnc(N)c23)cc1)c1cccc(C(F)(F)F)c1` [Example 26, (3-exo,8-syn)-3-[8-amino-1-(4-{(1R)-1-hydroxy-1-[3-(trifluoromethyl)phenyl]ethyl}phenyl)imidazo[1,5-a]pyrazin-3-yl]bicyclo[3.2.1]octane-8-carboxylic acid], the IC50 was determined as 33.5 nM.

For the compound `CC(C)[C@]1(C(=O)O)CCC[C@@H](c2nc(-c3ccc([C@](C)(O)c4cccc(C(F)(F)F)c4)cc3)c3c(N)nccn23)C1` [Example 14, (1S,3R)-3-[8-amino-1-(4-{(1S)-1-hydroxy-1-[3-(trifluoromethyl)phenyl]ethyl}phenyl)imidazo[1,5-a]pyrazin-3-yl]-1-(1-methylethyl)cyclohexanecarboxylic acid], the IC50 is 1000 nM.

With `CC(C)[C@@H]1CC[C@H](c2nc(-c3ccc([C@@](C)(O)c4cccc(C(F)(F)F)c4)cc3)c3c(N)nccn23)C[C@@H]1C(=O)O` [Example 23, (1S,2S,5S)-5-[8-amino-1-(4-{(1R)-1-hydroxy-1-[3-(trifluoromethyl)phenyl]ethyl}phenyl)imidazo[1,5-a]pyrazin-3-yl]-2-(1-methylethyl)cyclohexanecarboxylic acid], the IC50 worked out at 28.7 nM.

For the compound `C[C@@](O)(c1ccc(-c2nc(C34CCC(C(=O)O)(CC3)CC4)n3ccnc(N)c23)cc1)c1cccc(C(F)(F)F)c1` [Example 3, 4-[8-amino-1-(4-{(1R)-1-hydroxy-1-[3-(trifluoromethyl)phenyl]ethyl}phenyl)imidazo[1,5-a]pyrazin-3-yl]bicyclo[2.2.2]octane-1-carboxylic acid], the IC50 came out at 775 nM.

Consider `CCOc1cc(C(C)(O)c2cccc(C)c2)ccc1-c1nc(C23CCC(C(=O)O)(CC2)CC3)n2ccnc(N)c12` (centres unmarked) [Example 20, 4-(8-amino-1-{2-ethoxy-4-[1-hydroxy-1-(3-methylphenyl)ethyl]phenyl}imidazo[1,5-a]pyrazin-3-yl)bicyclo[2.2.2]octane-1-carboxylic acid], for which the IC50 was 136 nM.

`C[C@@](O)(c1ccc(-c2nc(C34CCC(C(=O)O)(CC3=O)C(=O)C4)n3ccnc(N)c23)cc1)c1cccc(C(F)(F)F)c1` (stereo partly drawn) [Example 6, 4-[8-amino-1-(4-{(1R)-1-hydroxy-1-[3-(trifluoromethyl)phenyl]ethyl}phenyl)imidazo[1,5-a]pyrazin-3-yl]-2,5-dioxobicyclo[2.2.2]octane-1-carboxylic acid]: the IC50 was found to be 52 nM.

Take `C[C@@](O)(c1ccc(-c2nc(C34CCC(C(=O)O)(CC3(F)F)C(F)(F)C4)n3ccnc(N)c23)cc1)c1cccc(C(F)(F)F)c1` (stereo partly drawn) [Example 12, 4-[8-amino-1-(4-{(1R)-1-hydroxy-1-[3-(trifluoromethyl)phenyl]ethyl}phenyl)imidazo[1,5-a]pyrazin-3-yl]-2,2,5,5-tetrafluorobicyclo[2.2.2]octane-1-carboxylic acid]: the IC50 was 17.3 nM.

Turning to `C[C@@](O)(c1ccc(-c2nc([C@@H]3C[C@@H]4[C@H](C3)[C@H]4C(=O)O)n3ccnc(N)c23)cc1)c1cccc(C(F)(F)F)c1` [Example 36, (1R,3R,5S,6r)-3-[8-amino-1-(4-{(1R)-1-hydroxy-1-[3-(trifluoromethyl)phenyl]ethyl}phenyl)imidazo[1,5-a]pyrazin-3-yl]bicyclo[3.1.0]hexane-6-carboxylic acid], the IC50 amounted to 1.1 nM.

Regarding `C[C@@](O)(c1ccc(-c2nc(C3(C(=O)O)CCOCC3)n3ccnc(N)c23)cc1)c1cccc(C(F)(F)F)c1` [Example 10, 4-[8-amino-1-(4-{(1R)-1-hydroxy-1-[3-(trifluoromethyl)phenyl]ethyl}phenyl)imidazo[1,5-a]pyrazin-3-yl]tetrahydro-2H-pyran-4-carboxylic acid], the IC50 is 294 nM.

Turning to `C[C@@](O)(c1ccc(-c2nc(C34CCC(C(=O)O)(CC3)C3CC34)n3ccnc(N)c23)cc1)c1cccc(C(F)(F)F)c1` (stereo partly drawn) [Example 22, 5-[8-amino-1-(4-{(1R)-1-hydroxy-1-[3-(trifluoromethyl)phenyl]ethyl}phenyl)imidazo[1,5-a]pyrazin-3-yl]tricyclo[3.2.2.0~2,4~]nonane-1-carboxylic acid], the IC50 is 6.2 nM.

As to `CC1(C)[C@H](c2nc(-c3ccc([C@@](C)(O)c4cccc(C(F)(F)F)c4)cc3)c3c(N)nccn23)CC[C@]1(C)C(=O)O` [Example 11, (1S,3R)-3-[8-amino-1-(4-{(1R)-1-hydroxy-1-[3-(trifluoromethyl)phenyl]ethyl}phenyl)imidazo[1,5-a]pyrazin-3-yl]-1,2,2-trimethylcyclopentanecarboxylic acid], the IC50 turned out to be 5 nM.

`CC(C)[C@]1(C(=O)O)CC[C@H](c2nc(-c3ccc([C@](C)(O)c4cccc(C(F)(F)F)c4)cc3)c3c(N)nccn23)C1` [Example 4, (1S,3S)-3-[8-amino-1-(4-{(1S)-1-hydroxy-1-[3-(trifluoromethyl)phenyl]ethyl}phenyl)imidazo[1,5-a]pyrazin-3-yl]-1-(1-methylethyl)cyclopentanecarboxylic acid]: the IC50 is 1000 nM.

Values taken from patent US10208047B2, “Tertiary alcohol imidazopyrazine BTK inhibitors” (Merck Sharp & Dohme Corp., priority 2014, dated 2019).
